# Data reported in US20030215888A1, “Androgen receptor overexpressing skeletal myoblasts” (Pfizer Inc., priority 2002, published 2003).
# Tests used:
# C2hAR57 cells = assay: [3H]-thymidine uptake assay, C2hAR57 cells; format: cell-based, mouse; settings: for effect on [3H]-thymidine uptake: 48 hours exposure
# Experimental: After 48 hours exposure to the test agents, medium containing 0.1 μCi [^3H]-thymidine (82 Ci/mmol, Amersham, Buckinghamshire, UK) per well was added and incubation was continued for two additional hours at 37° C. The assay was terminated by aspirating the culture medium and washing with ice-cold phosphate buffered saline followed by 5% trichloroacetic acid. The cells where then lysed by applying 0.3 N NaOH (75 μl per well) followed by 0.3 N HCl (75 μl per well) to neutralize the NaOH. The radioactivity in 50-μl aliquots was determined by liquid scintillation counting in 96-well plates (Packard Instrument Corporation) using a TopCount™ Scintillation Counter (Packard Instrument Corporation).
# androgen receptor = target: T1, androgen receptor (Homo sapiens, UniProt P10275); settings: read-out: IC50 (known affinities for the androgen receptor); printed beside rank order potency on inhibition of [3H]-thymidine uptake; cited from earlier work
# T1 sequence (P10275 1-920): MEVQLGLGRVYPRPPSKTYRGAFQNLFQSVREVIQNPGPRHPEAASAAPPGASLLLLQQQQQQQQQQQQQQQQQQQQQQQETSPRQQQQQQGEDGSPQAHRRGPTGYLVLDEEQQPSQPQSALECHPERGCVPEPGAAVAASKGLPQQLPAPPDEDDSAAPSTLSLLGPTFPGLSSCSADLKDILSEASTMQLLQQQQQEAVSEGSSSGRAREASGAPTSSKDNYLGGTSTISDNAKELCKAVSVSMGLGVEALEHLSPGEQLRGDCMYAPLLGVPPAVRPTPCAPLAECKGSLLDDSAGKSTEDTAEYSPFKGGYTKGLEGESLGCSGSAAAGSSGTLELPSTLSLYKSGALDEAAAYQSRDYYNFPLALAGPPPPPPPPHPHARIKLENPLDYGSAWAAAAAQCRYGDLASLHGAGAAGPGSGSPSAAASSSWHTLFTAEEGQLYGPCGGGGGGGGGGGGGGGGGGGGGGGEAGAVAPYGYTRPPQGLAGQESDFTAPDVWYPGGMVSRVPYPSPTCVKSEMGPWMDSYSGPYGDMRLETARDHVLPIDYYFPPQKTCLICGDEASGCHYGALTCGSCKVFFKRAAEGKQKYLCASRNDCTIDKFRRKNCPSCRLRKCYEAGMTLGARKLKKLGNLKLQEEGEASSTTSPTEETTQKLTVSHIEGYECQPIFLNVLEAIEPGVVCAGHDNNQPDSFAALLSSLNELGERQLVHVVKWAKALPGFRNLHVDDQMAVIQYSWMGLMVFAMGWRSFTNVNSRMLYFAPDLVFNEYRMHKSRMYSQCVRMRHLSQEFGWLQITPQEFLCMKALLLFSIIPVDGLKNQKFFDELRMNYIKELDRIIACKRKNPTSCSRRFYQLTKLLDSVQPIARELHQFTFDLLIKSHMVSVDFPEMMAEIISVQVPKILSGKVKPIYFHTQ
Structure (SMILES),reversal of the inhibition of [3H]-thymidine uptake by 0.1 nM DHT (C2hAR57 cells; concomitant addition with 0.1 nM DHT),effect on [3H]-thymidine uptake (C2hAR57 cells),IC50 (androgen receptor)
CC(C)(O)C(=O)Nc1ccc([N+](=O)[O-])c(C(F)(F)F)c1 [2-hydroxyflutamide],completely reversed,,
C[C@]12COC(=O)C[C@@H]1CC[C@@H]1[C@@H]2CC[C@@]2(C)[C@H]1CC[C@]2(C)O [oxandrolone],,dose-dependent inhibitory effects,28.4 nM
C[C@]12Cc3c[nH]nc3C[C@@H]1CC[C@@H]1[C@@H]2CC[C@@]2(C)[C@H]1CC[C@]2(C)O [stanozolol],,dose-dependent inhibitory effects,
C[C@]12CC[C@H]3[C@@H](CCC4=CC(=O)CC[C@@]43C)[C@@H]1CC[C@@H]2O [testosterone],,dose-dependent inhibitory effects,
